According to patent publication EP0051819A2, “Tetra-substituted benzene derivatives, their preparation and pharmaceutical preparations containing them” (F. HOFFMANN-LA ROCHE & CO. Aktiengesellschaft, priority 1980, dated 1982):
Values after ≈ are worked out from the molar mass of the structure shown. Where two headings read alike, the source gives them in different places.

Assays:
Rhinovirus HGP = test: Antiviral activity: inhibition of viral cytopathogenic effect (C.P.E.) in HeLa cell culture; type: cell-based; settings: for IC50: Enterovirus, HeLa, 48 h; for antivirale Aktivität: qualitative statement in the description, no virus named
Experimental: (§1) Eine Suspension von HeLa-Zellen (6 x 10^4) wurde mit Rhinovirus HGP (3 x 10^3 Plaque-bildende Einheiten, PFU) gemischt und auf eine Mikrotestplatte gebracht, die die zu testenden Verbindungen in zunehmender Verdünnung enthielten. Die Zellen wurden dann in Eagle's Minimalnährlösung, die 2% Kalbsserum, 1% Tryptosephosphatbrühe, 100 ug/ml Streptomycin und 20 Einheiten/ml Penicillin G enthielt, kultiviert. Der virale zytopathogenische Effekt (C.P.E.) und die Cytotoxizität wurden mikroskopisch nach 2 Tagen Kultivierung bei 33°C beobachtet. Die antivirale Aktivität (IC50) der Testverbindungen ist diejenige Konzentration,.bei der C.P.E. um 50% gegenüber der Kontrollkultur gehemmt war. Die Cytotoxizität ist als Minimalkonzentration angegeben, bei der toxische Symptome beobachtet wurden.(cytotoxische Dosis).

[1] = Cytotoxicity in HeLa cells, observed microscopically in the antiviral test; type: cell-based; settings: human, hela cells
Experimental: as §1

[2] = concentration inhibiting C.P.E. by 50% versus control culture, HeLa cells, 2 days at 33°C, read-out: IC50
[3] = minimal concentration at which toxic symptoms were observed (cytotoxische Dosis), 2 days at 33°C, read-out: Cytotoxizität

Row | IC50 (Rhinovirus HGP; [2]) [mg/L] | Compound | MCC at 48 h [1, 3] [µg/mL] | antivirale Aktivität (Rhinovirus HGP) | MCC at 48 h [1] [µg/mL] | IC50 (Rhinovirus HGP) [mg/L]
1 | 0.1 (≈ 0.257 µM) | CCOC(=O)Oc1cc(OC)cc(OC)c1C(=O)NCc1ccc(OC)cc1 | > 8 |  |  | 
2 | 0.01 to 0.03 (≈ 0.0303 to 0.0908 µM) | COc1ccc(C(=O)CC(=O)c2c(O)cc(OC)cc2OC)cc1 [1-(2-Hydroxy-4,6-dimethoxyphenyl)-3-(4-methoxyphenyl)-1,3-propandion] | 8 |  |  | 
3 | 0.002 (≈ 0.0063 µM) | COc1cccc(CNC(=O)c2c(O)cc(OC)cc2OC)c1 [2-Hydroxy-4,6-dimethoxy-N-(m--methoxybenzyl)benzamid] | > 8 |  |  | 
4 | 0.01 to 0.03 (≈ 0.0332 to 0.0996 µM) | COc1cc(O)c(C(=O)NCc2ccc(C)cc2)c(OC)c1 [2-Hydroxy-4,6-dimethoxy-N-(p--methylbenzyl)benzamid] | 8 |  |  | 
5 | 0.002 (≈ 0.0063 µM) | COc1ccc(CNC(=O)c2c(O)cc(OC)cc2OC)cc1 [2-Hydroxy-4,6-dimethoxy-N-(p-methoxybenzyl)benzamid] | 8 |  |  | 
6 | 0.3 (≈ 0.864 µM) | COc1cc(O)c(C(=O)NCc2ccc(OC)c(OC)c2)c(OC)c1 [2-Hydroxy-4,6-dimethoxy-N--(m,p-dimethoxybenzyl)benzamid] | 8 |  |  | 
7 | 0.002 (≈ 0.006 µM) | COc1cc(O)c(C(=O)NCc2ccc(SC)cc2)c(OC)c1 [2-Hydroxy-4,6-dimethoxy-N-[p--(methylthio)benzyl]benzamid] | > 8 | besonders starke antivirale Aktivität |  | 
8 | 0.001 to 0.002 (≈ 0.00269 to 0.00538 µM) | COc1ccc(CNC(=O)c2c(O)cc(OCC=C(C)C)cc2OC)cc1 [2-Hydroxy-6-methoxy-4-(3-methyl-2-butenyloxy)-N-(p-methoxybenzyl)benzamid] | > 8 | besonders starke antivirale Aktivität |  | 
9 | 0.001 to 0.003 (≈ 0.0029 to 0.00869 µM) | CCCOc1cc(O)c(C(=O)NCc2ccc(OC)cc2)c(OC)c1 [2-Hydroxy-6-methoxy-4-propoxy-N-(p-methoxybenzyl)benzamid] | > 20 | besonders starke antivirale Aktivität |  | 
10 | 0.1 to 0.3 (≈ 0.3 to 0.9 µM) | COc1cc(O)c(C(=O)NCc2ccc(OC)c(O)c2)c(OC)c1 [2-Hydroxy-N-(m-hydroxy-p-methoxy-benzyl)-4,6-dimethoxybenzamid] | 2.7 |  |  | 
11 | 0.3 (≈ 0.989 µM) | COc1cc(O)c(C(=O)NCc2ccc(O)cc2)c(OC)c1 [2-Hydroxy-N-(p-hydroxybenzyl)--4,6-dimethoxybenzamid] | > 8 |  |  | 
12 | 2.7 (≈ 5.63 µM) | COc1ccc(CNC(=O)c2c(OC)cc(OC)cc2O[C@@H]2O[C@H](CO)[C@@H](O)[C@H](O)[C@H]2O)cc1 [2-[(p-Anisyl-amino)carbonyl]-3,5-dimethoxyphenyl-ß-D-glucopyranosid] | > 10 |  |  | 
13 | 0.3 (≈ 0.803 µM) | CCOc1cc(OC)c(C(=O)NCc2ccc(OC)cc2)c(OC(C)=O)c1 [2-[(p-Anisyl-amino)carbonyl]-5-ethoxy-3-methoxypheny]acetat] | > 8 |  |  | 
14 | 0.03 (≈ 0.0712 µM) | COc1ccc(CNC(=O)c2c(OC)cc(OC)cc2OC(=O)c2ccccc2)cc1 [2-[(p-Anisylamino)carbonyl]-3,5-dimethoxyphenyl-benzoat] | > 8 |  |  | 
15 | 0.002 (≈ 0.00447 µM) | C=CCOc1ccc(CNC(=O)c2c(OC)cc(OC)cc2OC(=O)c2ccccc2)cc1 [2-{[[p-(Allyloxy)benzyl]amino]carbonyl}-3,5-dimethoxyphenyl-benzoat] | 2.7 | besonders starke antivirale Aktivität |  | 
16 | 0.3 (≈ 0.492 µM) | C=CCOc1ccc(CNC(=O)c2c(OC)cc(OC)cc2OC(=O)CCCCCCCCCCCCCCCCC)cc1 [2-{[[p-(Allyloxy)benzyl]amino]carbonyl}-3,5-dimethoxyphenyl-octadecanoat] | > 8 |  |  | 

Continued, compound first:

Row | Compound | IC50 (Rhinovirus HGP; [2]) [mg/L] | MCC at 48 h [1, 3] [µg/mL] | antivirale Aktivität (Rhinovirus HGP) | MCC at 48 h [1] [µg/mL] | IC50 (Rhinovirus HGP) [mg/L]
17 | CCOc1cc(OC)cc(O)c1C(=O)CCc1ccc(OC)cc1 [1-(2-Ethoxy-6-hydroxy-4--methoxyphenyl)-3-(4-methoxy-phenyl)-1-propanon] | 0.01 to 0.03 (≈ 0.0303 to 0.0908 µM) | 0.9 |  |  | 
18 | COc1cc(O)c(C(=O)CCc2ccc(C)cc2)c(OC)c1 [1-(2-Hydroxy-4,6-dimethoxy-phenyl)-3-(4-methylphenyl)-1--propanon] | 0.01 to 0.03 (≈ 0.0333 to 0.0999 µM) | > 8 |  |  | 
19 | COc1cc(O)c(C(=O)CCc2ccc3c(c2)OCO3)c(OC)c1 [1-(2-Hydroxy-4,6-dimethoxy-phenyl)-3-[3,4-(methylendioxy)-phenyl]-1-propanon] | 0.03 to 0.1 (≈ 0.0908 to 0.303 µM) | > 8 |  |  | 
20 | COc1cc(O)c(C(=O)CCc2ccc(SC)cc2)c(OC)c1 [1-(2-Hydroxy-4,6-dimethoxy-phenyl)-3-[4-(methylthio)-phenyl]-1-propanon] | 0.01 to 0.03 (≈ 0.0301 to 0.0902 µM) | 8 |  |  | 
21 | COc1cc(O)c(C(=O)CCc2ccc(C)o2)c(OC)c1 [1-(2-Hydroxy-4,6-dimethoxyphenyl)-3-(5-methyl-2-furyl)-l-propanon] | 0.9 (≈ 3.1 µM) | > 8 |  |  | 
22 | COc1cc(O)c(C(=O)CCC2CCC(C)O2)c(OC)c1 (stereo not drawn) [1-(2-Hydroxy-4,6-dimethoxyphenyl)-3-(tetrahydro-5-methyl-2-furyl)-1-propanon] | 0.9 (≈ 3.06 µM) | > 8 |  |  | 
23 | COc1ccc(CCC(=O)c2c(O)cc(OC(C)C)cc2OC)cc1 [1-(2-Hydroxy-4-isopropoxy-6-methoxyphenyl)-3-(4-methoxyphenyl)-1-propanon] | 0.03 to 0.1 (≈ 0.0871 to 0.29 µM) | 8 |  |  | 
24 | CCCOc1cc(O)c(C(=O)CCc2ccc(OC)cc2)c(OC)c1 [1-(2-Hydroxy-6-methoxy-4-propoxyphenyl)-3-(4-methoxyphenyl)-1-propanon] | 0.004 to 0.01 (≈ 0.0116 to 0.029 µM) | 2.7 |  |  | 
25 | COc1ccc(CCC(=NO)c2c(O)cc(OC)cc2OC)cc1 [1-(2-Hydroxy--4,6-dimethoxyphenyl)-3-(4-methoxyphenyl)-1-propanon-oxim] |  | > 10 |  |  | 
26 | CCOc1cc(O)c(C(=S)CCc2ccc(OC)cc2)c(OC)c1 [1-(4-Ethoxy-2-hydroxy-6-methoxyphenyl)-3-(4-methoxyphenyl)-1-propanthion] | 0.002 (≈ 0.00577 µM) |  | besonders starke antivirale Aktivität | 2.7 | 
27 | COc1ccc(CCC(=O)c2c(O)cc(SC)cc2OC)cc1 [1-[2-Hydroxy-6-methoxy-4-(methylthio)-phenyl]-3-(4-methoxyphenyl)-1-propanon] | 0.1 (≈ 0.301 µM) | 1 |  |  | 
28 | CCOc1cc(OC)c(C(=O)NCc2ccc(OC)cc2)c(OP(=O)(O)O)c1 [2--[(p-Anisylamino)carbonyl]-5-ethoxy-3-methoxyphenyl-dihydrogenphosphat] |  | > 8 | besonders starke antivirale Aktivität |  | 0.01 to 0.03 (≈ 0.0243 to 0.0729 µM)
29 | COc1cc(O)c(C(=O)NCc2cccs2)c(OC)c1 [2-Hydroxy-4,6-dimethoxy-N-(2--thenyl)benzamid] | 0.03 (≈ 0.102 µM) | 8 |  |  | 
30 | COc1cc(O)c(C(=O)NCc2ccc[nH]2)c(OC)c1 [2-Hydroxy-4,6-dimethoxy-N-(2-pyrrolylmethyl)benzamid] | 2.7 (≈ 9.77 µM) | > 8 |  |  | 
31 | COc1ccc(NC(=O)c2c(O)cc(OC)cc2OC)cc1 [2-Hydroxy-4,6-dimethoxy-N-(4--methoxyphenyl)benzamid] | 0.03 to 0.1 (≈ 0.0989 to 0.33 µM) | > 10 |  |  | 
32 | COc1cc(O)c(C(=O)NCc2ccc3c(c2)OCO3)c(OC)c1 [2-Hydroxy-4,6-dimethoxy-N-(m,p--methylenedioxybenzyl)benzamid] | 0.003 to 0.01 (≈ 0.00905 to 0.0302 µM) | > 8 |  |  | 
33 | COc1cc(O)c(C(=O)NCC2CCCS2)c(OC)c1 (stereo not drawn) [2-Hydroxy-4,6-dimethoxy-N--(tetrahydro-2-thenyl)benzamid] | 0.004 to 0.01 (≈ 0.0135 to 0.0336 µM) | 8 |  |  | 
34 | CNC(=O)c1c(O)cc(OC)cc1OC [2-Hydroxy-4,6-dimethoxy-N--methylbenzamid] | 0.9 (≈ 4.26 µM) | > 8 |  |  | 
35 | COc1cc(O)c(C(=O)NCc2ccncc2)c(OC)c1 [2-Hydroxy-4,6-dimethoxy-N-[(4-pyridyl)methyl]benzamid] | 0.9 (≈ 3.12 µM) | 8 |  |  | 
36 | COc1ccc(CNC(=O)c2c(OC)cc(OC)cc2OP(=O)(O)O)cc1 [2-[(p-Anisylamino)carbonyl]-3,5-dimethoxyphenyl-dihydrogenphosphat] |  | > 8 |  |  | 0.006 to 0.01 (≈ 0.0151 to 0.0252 µM)
37 | CCCCCCCCCCCCCCCCCC(=O)Oc1cc(OC)cc(OC)c1C(=O)NCc1ccc(OC)cc1 [2-[(p-Anisylamino)carbonyl]-3,5-dimethoxyphenyl-octadecanoat] | 0.3 to 0.9 (≈ 0.514 to 1.54 µM) | > 8 |  |  | 
38 | COc1ccc(CNC(=O)c2c(OC)cc(OC)cc2O[C@@H]2O[C@H](COC(C)=O)[C@@H](OC(C)=O)[C@H](OC(C)=O)[C@H]2OC(C)=O)cc1 [2-[(p-Anisylamino)carbonyl]-3,5-dimethoxyphenyl-tetra-O-acetyl-ß-D-glucopyranosid] | 2.7 (≈ 4.17 µM) | > 10 |  |  | 
